Source: article PMC8037182, “Solvothermal Synthesis of Multiple Dihydropyrimidinones at a Time as Inhibitors of Eg5” (Molecules, 2021)

System: Hela cell line
Test: Cytotoxicity MTS assay, Hela cell line
Assay type: cell-based
Details: for OD490 value, Mean / OD490 value, Well 1 / OD490 value, Well 2 / OD490 value, Well 3: Hela cell line, MTS; for IC50: MTS assay, 24 h exposure
Procedure: The positive compounds (IC50 < 100 μM) obtained from the primary Eg5 motor protein ATPase assay were tested for antiproliferative activity in vitro against Caco-2 cell line, Hela cell line, L929 cell line and T24 cell line by performing MTS assay. Cells were introduced into 96-well plates at a density of 1000 cells per well. After 24 h incubation, the cells were exposed with compounds at final concentrations ranging from 0.5 to 100 µM for 24 h. DMSO was used at a final concentration of 0.025% as blank control, monastrol was used as the positive control. Then 20 µL (CellTiter 96® AQueous One Solution Promega, Madison, WI, USA) reagent was added in each well. After 2 h at 37 °C in a 80% humidified, 5% CO2 atmosphere, the absorbance at 490 nm was recorded using a microplate reader (BIO-RAD iMark^TM). The results were obtained in three independent duplicate experiments. The primary data were shown in Supplementary Materials Tables S4–S7. The IC50 values for these compounds were calculated from a non-linear regression graph plotted between the percentage of cell viability and concentration with SPSS17.0 software.

In the case of `CCOC(=O)c1c(C2NC(=O)NC(C)=C2C(=O)Nc2ccccc2OC)[nH]c(C(=O)OC)c1C` (centres unmarked) [D1], the “OD490 value, Mean” value (0.5μM, first assay) is reported as 2.5955, the “OD490 value, Well 1” value (0.5μM, first assay) is reported as 2.6286 and the “OD490 value, Well 2” value (0.5μM, first assay) is reported as 2.5425. The “OD490 value, Well 3” value (0.5μM, first assay) was 2.6155, the “OD490 value, Mean” value (0.5μM, second assay) was 2.5919 and the “OD490 value, Well 1” value (0.5μM, second assay) was 2.6314. The “OD490 value, Well 2” value (0.5μM, second assay) was 2.6010, the “OD490 value, Well 3” value (0.5μM, second assay) was 2.5433 and the “OD490 value, Mean” value (0.5μM, third assay) was 2.5096. The “OD490 value, Well 1” value (0.5μM, third assay) was 2.7036, the “OD490 value, Well 2” value (0.5μM, third assay) was 2.5565 and the “OD490 value, Well 3” value (0.5μM, third assay) was 2.2688. For the same molecule, the “OD490 value, Mean” value (1μM, first assay) was 2.6416, the “OD490 value, Well 1” value (1μM, first assay) was 2.6885 and the “OD490 value, Well 2” value (1μM, first assay) was 2.5442. For the same molecule, the “OD490 value, Well 3” value (1μM, first assay) was 2.6922, the “OD490 value, Mean” value (1μM, second assay) was 2.5793 and the “OD490 value, Well 1” value (1μM, second assay) was 2.5367. For the same molecule, the “OD490 value, Well 2” value (1μM, second assay) was 2.4698, the “OD490 value, Well 3” value (1μM, second assay) was 2.7314 and the “OD490 value, Mean” value (1μM, third assay) was 2.7183. The “OD490 value, Well 1” value (1μM, third assay) was 2.6969, the “OD490 value, Well 2” value (1μM, third assay) was 2.7546 and the “OD490 value, Well 3” value (1μM, third assay) was 2.7033. The “OD490 value, Mean” value (10μM, first assay) was 2.4106, the “OD490 value, Well 1” value (10μM, first assay) was 2.3442 and the “OD490 value, Well 2” value (10μM, first assay) was 2.5603. For the same molecule, the “OD490 value, Well 3” value (10μM, first assay) was 2.3272, the “OD490 value, Mean” value (10μM, second assay) was 2.3296 and the “OD490 value, Well 1” value (10μM, second assay) was 2.6351. The “OD490 value, Well 2” value (10μM, second assay) was 2.1367, the “OD490 value, Well 3” value (10μM, second assay) was 2.2169 and the “OD490 value, Mean” value (10μM, third assay) was 2.4826. The “OD490 value, Well 1” value (10μM, third assay) was 2.5635, the “OD490 value, Well 2” value (10μM, third assay) was 2.3145 and the “OD490 value, Well 3” value (10μM, third assay) was 2.5698. For the same molecule, the “OD490 value, Mean” value (25μM, first assay) was 2.1398, the “OD490 value, Well 1” value (25μM, first assay) was 2.1204 and the “OD490 value, Well 2” value (25μM, first assay) was 2.2546. For the same molecule, the “OD490 value, Well 3” value (25μM, first assay) was 2.0445, the “OD490 value, Mean” value (25μM, second assay) was 2.1914 and the “OD490 value, Well 1” value (25μM, second assay) was 2.2361. The “OD490 value, Well 2” value (25μM, second assay) was 2.1235, the “OD490 value, Well 3” value (25μM, second assay) was 2.2145 and the “OD490 value, Mean” value (25μM, third assay) was 2.1507. The “OD490 value, Well 1” value (25μM, third assay) was 2.2233, the “OD490 value, Well 2” value (25μM, third assay) was 2.2142 and the “OD490 value, Well 3” value (25μM, third assay) was 2.0145. The “OD490 value, Mean” value (50μM, first assay) was 2.0448, the “OD490 value, Well 1” value (50μM, first assay) was 2.0719 and the “OD490 value, Well 2” value (50μM, first assay) was 2.1034. For the same molecule, the “OD490 value, Well 3” value (50μM, first assay) was 1.9590, the “OD490 value, Mean” value (50μM, second assay) was 2.0574 and the “OD490 value, Well 1” value (50μM, second assay) was 1.9987. For the same molecule, the “OD490 value, Well 2” value (50μM, second assay) was 2.1136, the “OD490 value, Well 3” value (50μM, second assay) was 2.0599 and the “OD490 value, Mean” value (50μM, third assay) was 2.0424. For the same molecule, the “OD490 value, Well 1” value (50μM, third assay) was 2.0136, the “OD490 value, Well 2” value (50μM, third assay) was 1.9658 and the “OD490 value, Well 3” value (50μM, third assay) was 2.1478. For the same molecule, the “OD490 value, Mean” value (100μM, first assay) was 1.9714, the “OD490 value, Well 1” value (100μM, first assay) was 1.9106 and the “OD490 value, Well 2” value (100μM, first assay) was 1.9576. The “OD490 value, Well 3” value (100μM, first assay) was 2.0459, the “OD490 value, Mean” value (100μM, second assay) was 1.9690 and the “OD490 value, Well 1” value (100μM, second assay) was 2.0360. For the same molecule, the “OD490 value, Well 2” value (100μM, second assay) was 1.8490, the “OD490 value, Well 3” value (100μM, second assay) was 2.0220 and the “OD490 value, Mean” value (100μM, third assay) was 1.9075. For the same molecule, the “OD490 value, Well 1” value (100μM, third assay) was 2.0141, the “OD490 value, Well 2” value (100μM, third assay) was 1.8426 and the “OD490 value, Well 3” value (100μM, third assay) was 1.8657. It also gave an IC50 of 128 µM.

`CCOC(=O)c1c(C2NC(=O)NC(C)=C2C(=O)Nc2ccccc2C)[nH]c(C(=O)OC)c1C` (centres unmarked) [D2] was tested, and the “OD490 value, Mean” value (0.5μM, first assay) was 2.6241, the “OD490 value, Well 1” value (0.5μM, first assay) was 2.6512 and the “OD490 value, Well 2” value (0.5μM, first assay) was 2.7230. For the same molecule, the “OD490 value, Well 3” value (0.5μM, first assay) was 2.4982, the “OD490 value, Mean” value (0.5μM, second assay) was 2.6365 and the “OD490 value, Well 1” value (0.5μM, second assay) was 2.7038. For the same molecule, the “OD490 value, Well 2” value (0.5μM, second assay) was 2.6687, the “OD490 value, Well 3” value (0.5μM, second assay) was 2.5371 and the “OD490 value, Mean” value (0.5μM, third assay) was 2.6753. For the same molecule, the “OD490 value, Well 1” value (0.5μM, third assay) was 2.5959, the “OD490 value, Well 2” value (0.5μM, third assay) was 2.8645 and the “OD490 value, Well 3” value (0.5μM, third assay) was 2.5656. For the same molecule, the “OD490 value, Mean” value (1μM, first assay) was 2.5821, the “OD490 value, Well 1” value (1μM, first assay) was 2.5465 and the “OD490 value, Well 2” value (1μM, first assay) was 2.6265. For the same molecule, the “OD490 value, Well 3” value (1μM, first assay) was 2.5734, the “OD490 value, Mean” value (1μM, second assay) was 2.6167 and the “OD490 value, Well 1” value (1μM, second assay) was 2.6874. The “OD490 value, Well 2” value (1μM, second assay) was 2.5987, the “OD490 value, Well 3” value (1μM, second assay) was 2.5641 and the “OD490 value, Mean” value (1μM, third assay) was 2.6782. The “OD490 value, Well 1” value (1μM, third assay) was 2.5645, the “OD490 value, Well 2” value (1μM, third assay) was 2.7848 and the “OD490 value, Well 3” value (1μM, third assay) was 2.6854. The “OD490 value, Mean” value (10μM, first assay) was 2.6025, the “OD490 value, Well 1” value (10μM, first assay) was 2.4718 and the “OD490 value, Well 2” value (10μM, first assay) was 2.7280. The “OD490 value, Well 3” value (10μM, first assay) was 2.6077, the “OD490 value, Mean” value (10μM, second assay) was 2.7525 and the “OD490 value, Well 1” value (10μM, second assay) was 2.8301. For the same molecule, the “OD490 value, Well 2” value (10μM, second assay) was 2.6874, the “OD490 value, Well 3” value (10μM, second assay) was 2.7401 and the “OD490 value, Mean” value (10μM, third assay) was 2.6780. For the same molecule, the “OD490 value, Well 1” value (10μM, third assay) was 2.5659, the “OD490 value, Well 2” value (10μM, third assay) was 2.6898 and the “OD490 value, Well 3” value (10μM, third assay) was 2.7784. For the same molecule, the “OD490 value, Mean” value (25μM, first assay) was 2.6414, the “OD490 value, Well 1” value (25μM, first assay) was 2.4669 and the “OD490 value, Well 2” value (25μM, first assay) was 2.6653. For the same molecule, the “OD490 value, Well 3” value (25μM, first assay) was 2.7919, the “OD490 value, Mean” value (25μM, second assay) was 2.6474 and the “OD490 value, Well 1” value (25μM, second assay) was 2.8835. For the same molecule, the “OD490 value, Well 2” value (25μM, second assay) was 2.4699, the “OD490 value, Well 3” value (25μM, second assay) was 2.5888 and the “OD490 value, Mean” value (25μM, third assay) was 2.6061. The “OD490 value, Well 1” value (25μM, third assay) was 2.5656, the “OD490 value, Well 2” value (25μM, third assay) was 2.6632 and the “OD490 value, Well 3” value (25μM, third assay) was 2.5894. The “OD490 value, Mean” value (50μM, first assay) was 2.6499, the “OD490 value, Well 1” value (50μM, first assay) was 2.7237 and the “OD490 value, Well 2” value (50μM, first assay) was 2.5642. The “OD490 value, Well 3” value (50μM, first assay) was 2.6617, the “OD490 value, Mean” value (50μM, second assay) was 2.5211 and the “OD490 value, Well 1” value (50μM, second assay) was 2.6654. For the same molecule, the “OD490 value, Well 2” value (50μM, second assay) was 2.5656, the “OD490 value, Well 3” value (50μM, second assay) was 2.3324 and the “OD490 value, Mean” value (50μM, third assay) was 2.6330. The “OD490 value, Well 1” value (50μM, third assay) was 2.6547, the “OD490 value, Well 2” value (50μM, third assay) was 2.5655 and the “OD490 value, Well 3” value (50μM, third assay) was 2.6788. For the same molecule, the “OD490 value, Mean” value (100μM, first assay) was 1.9886, the “OD490 value, Well 1” value (100μM, first assay) was 2.0164 and the “OD490 value, Well 2” value (100μM, first assay) was 1.9699. The “OD490 value, Well 3” value (100μM, first assay) was 1.9794, the “OD490 value, Mean” value (100μM, second assay) was 2.0267 and the “OD490 value, Well 1” value (100μM, second assay) was 1.8863. For the same molecule, the “OD490 value, Well 2” value (100μM, second assay) was 1.9925, the “OD490 value, Well 3” value (100μM, second assay) was 2.2014 and the “OD490 value, Mean” value (100μM, third assay) was 2.0032. The “OD490 value, Well 1” value (100μM, third assay) was 1.9987, the “OD490 value, Well 2” value (100μM, third assay) was 2.0123 and the “OD490 value, Well 3” value (100μM, third assay) was 1.9986. For the same molecule, the IC50 was greater than 150 µM.
